Measured values from ChEMBL document CHEMBL1201862, “PubChem BioAssay data set” (2004).
Active and inactive are the calls of the source.

Key:
[1] = target: T1, RNA-binding protein pos-1 (Caenorhabditis elegans, UniProt G5EF15); assay: disruptors of C. elegans POS-1 RNA interaction – biochemical, fluorescence polarization, dose response (AID 1964);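 further: purified POS-1 fused to maltose binding protein made in E. coli; potency of compounds blocking POS-1 binding to fluorescent RNA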
T1 sequence (G5EF15 whole entry): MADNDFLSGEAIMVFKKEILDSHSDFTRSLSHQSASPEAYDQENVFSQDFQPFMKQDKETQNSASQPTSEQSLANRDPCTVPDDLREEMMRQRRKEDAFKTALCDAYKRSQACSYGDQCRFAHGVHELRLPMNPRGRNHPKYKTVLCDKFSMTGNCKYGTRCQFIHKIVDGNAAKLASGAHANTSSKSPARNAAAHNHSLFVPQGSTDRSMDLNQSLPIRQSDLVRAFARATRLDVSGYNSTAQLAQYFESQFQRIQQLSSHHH

[2] = target: T2, Zinc finger protein mex-5 (Caenorhabditis elegans, UniProt Q9XUB2); assay: potency of MEX-5 RNA-binding blockers – biochemical, C. elegans, fluorescence polarization, dose response (AID 1960)
T2 sequence (Q9XUB2 whole entry): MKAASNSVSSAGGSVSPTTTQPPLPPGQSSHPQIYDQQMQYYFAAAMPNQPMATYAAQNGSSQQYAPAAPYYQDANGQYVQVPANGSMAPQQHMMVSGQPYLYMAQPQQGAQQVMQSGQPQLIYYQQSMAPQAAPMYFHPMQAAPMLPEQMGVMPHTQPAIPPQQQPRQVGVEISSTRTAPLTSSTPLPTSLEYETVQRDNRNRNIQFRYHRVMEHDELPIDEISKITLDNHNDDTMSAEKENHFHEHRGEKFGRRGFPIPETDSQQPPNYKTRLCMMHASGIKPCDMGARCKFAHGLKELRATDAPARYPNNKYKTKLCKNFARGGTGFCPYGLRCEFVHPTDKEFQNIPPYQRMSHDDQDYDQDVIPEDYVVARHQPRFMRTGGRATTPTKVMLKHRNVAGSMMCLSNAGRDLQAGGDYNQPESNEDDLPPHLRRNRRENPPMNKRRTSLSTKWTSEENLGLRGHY

[3] = target: G-protein coupled receptor 55 (Homo sapiens, UniProt Q9Y2T6); assay: selective activators of receptor GPR55 – imaging, U2OS cells, beta-arrestin-GFP redistribution, primary screen (AID 1961); assay type: functional
G-protein coupled receptor 55, sequence (Q9Y2T6 whole entry): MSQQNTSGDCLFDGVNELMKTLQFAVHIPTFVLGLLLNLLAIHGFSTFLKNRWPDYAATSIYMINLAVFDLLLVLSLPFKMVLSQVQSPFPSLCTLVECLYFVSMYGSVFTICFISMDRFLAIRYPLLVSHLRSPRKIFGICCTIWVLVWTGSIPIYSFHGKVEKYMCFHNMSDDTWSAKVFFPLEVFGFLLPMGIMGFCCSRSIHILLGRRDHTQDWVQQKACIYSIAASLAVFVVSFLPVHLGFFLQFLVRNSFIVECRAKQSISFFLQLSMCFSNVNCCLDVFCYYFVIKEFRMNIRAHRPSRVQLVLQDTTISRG

[4] = target: Neurotensin receptor type 1 (Homo sapiens, UniProt P30989); assay type: functional;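 further: Image-based confirmatory dose-response assay measuring agonist activity at NTR1; NTR1-expressing U2OS osteosarcoma cells imaged for beta-arrestin GFP spot formation; agonist potency where compounds increase beta-arrestin recruitment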
Neurotensin receptor type 1, sequence (P30989 whole entry): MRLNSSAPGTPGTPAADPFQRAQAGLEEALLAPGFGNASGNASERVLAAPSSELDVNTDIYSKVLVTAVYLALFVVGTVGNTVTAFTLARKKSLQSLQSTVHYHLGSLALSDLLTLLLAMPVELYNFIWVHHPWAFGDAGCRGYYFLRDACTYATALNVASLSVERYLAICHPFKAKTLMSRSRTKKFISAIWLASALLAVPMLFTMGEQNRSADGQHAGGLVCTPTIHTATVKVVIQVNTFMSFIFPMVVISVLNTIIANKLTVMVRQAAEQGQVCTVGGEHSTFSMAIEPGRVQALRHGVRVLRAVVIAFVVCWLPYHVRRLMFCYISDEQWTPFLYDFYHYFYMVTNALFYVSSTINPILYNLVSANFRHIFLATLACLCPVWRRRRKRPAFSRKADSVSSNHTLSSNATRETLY

[5] = target: T3, Endoribonuclease toxin MazF (Escherichia coli K-12, UniProt P0AE70); assay: activation of MazEF endoribonuclease cleavage – biochemical, fluorescence, single-stranded RNA substrate, uHTS hits, dose response (AID 588481); assay type: functional
T3 sequence (P0AE70 whole entry): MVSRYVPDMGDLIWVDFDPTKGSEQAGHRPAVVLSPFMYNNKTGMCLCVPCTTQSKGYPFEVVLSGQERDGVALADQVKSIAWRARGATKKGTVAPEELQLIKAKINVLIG

[6] = target: T3, Endoribonuclease toxin MazF; assay: substrate-only fluorescence increase artefacts – biochemical, single-stranded RNase substrate, counter-screen for MazEF activator project, dose response (AID 588502); assay type: functional
Hexokinase = Hexokinase (Trypanosoma brucei, UniProt Q38C41); assay: Confirmation assay for inhibitors of Trypanosoma brucei hexokinase 1-Analogue-first series. [Related pubchem assays (depositor defined):AID1430, AID1632, AID2516, AID2560, AID2579, AID2600, AID449725, AID492951]; assay type: functional
Hexokinase, sequence (Q38C41 whole entry): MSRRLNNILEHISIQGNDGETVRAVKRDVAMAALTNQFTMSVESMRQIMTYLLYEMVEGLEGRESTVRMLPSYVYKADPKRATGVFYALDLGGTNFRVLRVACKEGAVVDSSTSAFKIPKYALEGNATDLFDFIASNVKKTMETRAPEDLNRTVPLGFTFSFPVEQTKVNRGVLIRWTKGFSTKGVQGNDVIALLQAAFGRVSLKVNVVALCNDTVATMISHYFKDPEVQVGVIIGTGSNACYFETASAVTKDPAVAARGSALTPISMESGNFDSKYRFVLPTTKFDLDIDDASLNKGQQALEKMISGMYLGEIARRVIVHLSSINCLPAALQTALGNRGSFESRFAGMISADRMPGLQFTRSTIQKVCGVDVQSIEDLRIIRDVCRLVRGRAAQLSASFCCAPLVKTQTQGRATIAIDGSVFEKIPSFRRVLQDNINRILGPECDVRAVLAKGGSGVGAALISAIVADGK

[7] = target: Intestinal-type alkaline phosphatase (Mus musculus, UniProt P24822); assay: PubChem AID 488875; assay type: functional
Intestinal-type alkaline phosphatase (Mus musculus, UniProt P24822), sequence (P24822 whole entry): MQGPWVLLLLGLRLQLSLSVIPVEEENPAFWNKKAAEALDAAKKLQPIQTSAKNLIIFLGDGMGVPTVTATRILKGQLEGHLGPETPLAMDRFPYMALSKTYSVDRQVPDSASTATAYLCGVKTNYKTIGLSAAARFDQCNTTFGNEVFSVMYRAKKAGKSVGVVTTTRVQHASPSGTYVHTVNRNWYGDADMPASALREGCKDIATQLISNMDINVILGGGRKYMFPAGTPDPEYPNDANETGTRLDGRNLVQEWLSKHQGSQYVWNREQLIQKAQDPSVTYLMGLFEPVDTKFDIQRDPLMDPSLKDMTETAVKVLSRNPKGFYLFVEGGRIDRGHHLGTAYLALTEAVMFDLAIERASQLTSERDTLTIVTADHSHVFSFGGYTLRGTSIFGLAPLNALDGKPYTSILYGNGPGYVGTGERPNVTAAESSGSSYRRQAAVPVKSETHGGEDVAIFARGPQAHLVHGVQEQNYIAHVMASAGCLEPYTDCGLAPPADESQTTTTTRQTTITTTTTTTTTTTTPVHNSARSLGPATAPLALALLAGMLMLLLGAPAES

[8] = target: T4, Intestinal-type alkaline phosphatase (Homo sapiens, UniProt P09923); assay: human intestinal alkaline phosphatase activators, dose response, biochemical, luminescence, uHTS hits (AID 463120); assay type: functional
T4 sequence (P09923 whole entry): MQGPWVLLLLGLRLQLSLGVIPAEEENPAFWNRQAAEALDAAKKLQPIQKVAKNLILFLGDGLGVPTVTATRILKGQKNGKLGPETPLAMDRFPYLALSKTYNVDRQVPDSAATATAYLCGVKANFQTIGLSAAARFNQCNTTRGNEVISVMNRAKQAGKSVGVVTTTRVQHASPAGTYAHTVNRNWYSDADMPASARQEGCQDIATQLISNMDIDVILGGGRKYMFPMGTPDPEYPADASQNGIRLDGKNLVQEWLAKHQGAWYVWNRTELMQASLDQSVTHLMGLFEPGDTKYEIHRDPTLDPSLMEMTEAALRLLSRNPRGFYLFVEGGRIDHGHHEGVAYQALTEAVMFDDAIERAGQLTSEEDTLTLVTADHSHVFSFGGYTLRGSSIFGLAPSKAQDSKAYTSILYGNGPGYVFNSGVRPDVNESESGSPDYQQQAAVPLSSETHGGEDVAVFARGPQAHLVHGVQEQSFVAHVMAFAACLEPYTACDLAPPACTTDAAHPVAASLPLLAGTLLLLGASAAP

[9] = target: T4, Intestinal-type alkaline phosphatase; assay: activation of human intestinal alkaline phosphatase – biochemical, luminescent, uHTS hits, set 2, dose response (AID 488817); assay type: functional;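 further: potency of activators that raise enzyme activity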
[10] = target: T5, Alkaline phosphatase, tissue-nonspecific isozyme (Homo sapiens, UniProt P05186); assay: activation of tissue-nonspecific alkaline phosphatase – biochemical, TNAP isozyme, human IAP uHTS hits, selectivity assay for human IAP activator project, dose response (AID 488886); assay type: functional;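 further: potency of compounds raising TNAP activity as a selectivity check on IAP activators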
T5 sequence (P05186 whole entry): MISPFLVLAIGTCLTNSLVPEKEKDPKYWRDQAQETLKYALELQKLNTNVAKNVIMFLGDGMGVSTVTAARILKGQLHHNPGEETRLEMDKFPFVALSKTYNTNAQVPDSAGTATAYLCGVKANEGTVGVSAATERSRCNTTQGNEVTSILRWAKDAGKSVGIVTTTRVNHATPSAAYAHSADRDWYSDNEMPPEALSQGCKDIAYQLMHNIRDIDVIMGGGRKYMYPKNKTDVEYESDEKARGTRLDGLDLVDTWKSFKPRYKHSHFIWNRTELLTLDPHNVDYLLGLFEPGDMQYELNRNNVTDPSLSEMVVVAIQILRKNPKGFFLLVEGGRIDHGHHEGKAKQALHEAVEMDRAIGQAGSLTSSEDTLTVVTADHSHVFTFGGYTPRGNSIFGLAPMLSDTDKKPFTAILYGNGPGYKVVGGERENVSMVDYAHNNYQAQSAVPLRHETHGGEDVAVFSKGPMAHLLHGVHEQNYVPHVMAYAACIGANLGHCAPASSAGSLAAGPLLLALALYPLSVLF

[11] = target: T6, Tyrosine-protein phosphatase non-receptor type 7 (Homo sapiens, UniProt P35236); assay type: functional
T6 sequence (P35236 whole entry): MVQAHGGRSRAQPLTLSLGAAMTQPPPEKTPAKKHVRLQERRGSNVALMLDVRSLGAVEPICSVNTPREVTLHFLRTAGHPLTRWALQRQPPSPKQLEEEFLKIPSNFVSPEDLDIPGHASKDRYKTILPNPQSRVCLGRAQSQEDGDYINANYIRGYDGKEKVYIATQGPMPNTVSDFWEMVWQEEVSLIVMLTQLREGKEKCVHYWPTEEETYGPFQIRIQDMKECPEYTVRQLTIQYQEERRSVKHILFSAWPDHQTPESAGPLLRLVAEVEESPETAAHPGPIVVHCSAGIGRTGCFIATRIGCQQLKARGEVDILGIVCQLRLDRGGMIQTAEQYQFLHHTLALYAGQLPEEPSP

[12] = target: Glyceraldehyde-3-phosphate dehydrogenase (Homo sapiens, UniProt P04406)
Glyceraldehyde-3-phosphate dehydrogenase, sequence (P04406 whole entry): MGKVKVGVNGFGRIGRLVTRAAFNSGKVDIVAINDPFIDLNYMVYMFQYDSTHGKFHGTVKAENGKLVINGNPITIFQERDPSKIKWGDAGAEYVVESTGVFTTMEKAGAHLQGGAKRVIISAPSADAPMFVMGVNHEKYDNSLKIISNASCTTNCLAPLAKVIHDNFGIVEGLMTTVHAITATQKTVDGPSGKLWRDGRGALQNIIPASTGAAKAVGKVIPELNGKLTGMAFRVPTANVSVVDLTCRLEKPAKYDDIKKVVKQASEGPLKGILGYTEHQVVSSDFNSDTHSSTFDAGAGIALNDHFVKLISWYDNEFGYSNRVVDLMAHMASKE

[13] = target: Heat shock cognate 71 kDa protein (Homo sapiens, UniProt P11142); assay: In Vitro Hsc70 Dose Response Fluorescence Polarization Assay. [Related pubchem assays: 1072 ]
Heat shock cognate 71 kDa protein, sequence (P11142 whole entry): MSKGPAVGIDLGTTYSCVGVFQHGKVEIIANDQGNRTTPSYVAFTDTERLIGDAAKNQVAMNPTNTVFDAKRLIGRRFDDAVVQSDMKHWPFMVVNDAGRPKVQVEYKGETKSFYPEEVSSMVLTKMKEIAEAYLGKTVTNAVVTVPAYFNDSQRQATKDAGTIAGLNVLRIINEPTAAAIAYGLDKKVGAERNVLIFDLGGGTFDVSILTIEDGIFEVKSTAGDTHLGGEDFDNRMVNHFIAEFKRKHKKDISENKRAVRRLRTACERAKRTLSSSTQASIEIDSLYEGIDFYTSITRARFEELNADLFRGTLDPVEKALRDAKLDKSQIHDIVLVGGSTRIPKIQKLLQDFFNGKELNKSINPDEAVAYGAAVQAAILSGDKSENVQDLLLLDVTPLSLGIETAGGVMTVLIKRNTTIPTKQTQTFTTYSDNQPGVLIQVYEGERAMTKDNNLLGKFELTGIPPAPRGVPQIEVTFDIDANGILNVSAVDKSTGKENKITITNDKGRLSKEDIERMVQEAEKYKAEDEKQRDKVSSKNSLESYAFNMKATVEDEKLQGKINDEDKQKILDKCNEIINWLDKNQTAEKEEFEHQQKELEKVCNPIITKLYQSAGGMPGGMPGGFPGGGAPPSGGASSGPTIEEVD

[14] = target: Heat shock 70 kDa protein 1A (Homo sapiens, UniProt P0DMV8); assay: inhibition of Hsp70 binding activity – biochemical, fluorescence polarization, SAR follow-up (AID 1072)
Heat shock 70 kDa protein 1A, sequence (P0DMV8 whole entry): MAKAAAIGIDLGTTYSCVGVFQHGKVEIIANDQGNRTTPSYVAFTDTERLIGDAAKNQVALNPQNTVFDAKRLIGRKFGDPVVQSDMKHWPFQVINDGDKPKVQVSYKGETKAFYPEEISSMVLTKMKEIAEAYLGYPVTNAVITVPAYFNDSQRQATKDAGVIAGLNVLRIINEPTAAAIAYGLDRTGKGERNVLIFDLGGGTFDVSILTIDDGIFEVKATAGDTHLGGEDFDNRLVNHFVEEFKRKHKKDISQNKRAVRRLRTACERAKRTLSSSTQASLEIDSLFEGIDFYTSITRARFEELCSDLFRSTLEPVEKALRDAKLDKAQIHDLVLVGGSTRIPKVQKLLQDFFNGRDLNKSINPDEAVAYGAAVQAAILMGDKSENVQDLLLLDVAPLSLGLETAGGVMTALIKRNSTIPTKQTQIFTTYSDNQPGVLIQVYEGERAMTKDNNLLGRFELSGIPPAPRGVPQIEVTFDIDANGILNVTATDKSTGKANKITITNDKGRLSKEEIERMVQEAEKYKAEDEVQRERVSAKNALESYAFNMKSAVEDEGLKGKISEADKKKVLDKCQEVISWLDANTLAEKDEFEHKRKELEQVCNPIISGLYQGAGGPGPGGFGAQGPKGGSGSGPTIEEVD

[15] = target: T7, Dual specificity protein phosphatase 6 (Rattus norvegicus, UniProt Q64346);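 further: in vitro confirmatory secondary MKP-3 assay designed to detect irreversible or slow-binding inhibitors; recombinant His-tagged rat MKP-3 acting on the substrate OMFP; inhibitor potency from reduced phosphatase rate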
T7 sequence (Q64346 whole entry): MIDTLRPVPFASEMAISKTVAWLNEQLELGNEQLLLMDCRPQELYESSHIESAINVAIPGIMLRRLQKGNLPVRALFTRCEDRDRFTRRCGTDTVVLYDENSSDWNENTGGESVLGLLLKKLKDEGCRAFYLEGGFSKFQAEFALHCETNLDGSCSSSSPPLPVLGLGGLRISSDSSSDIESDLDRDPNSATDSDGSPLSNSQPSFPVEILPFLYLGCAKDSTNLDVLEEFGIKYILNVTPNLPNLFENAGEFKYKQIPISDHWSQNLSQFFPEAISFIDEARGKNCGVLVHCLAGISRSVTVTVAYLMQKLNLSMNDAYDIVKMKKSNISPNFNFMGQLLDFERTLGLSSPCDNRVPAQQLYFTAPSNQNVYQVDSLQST

[16] = target: Dual specificity protein phosphatase 3 (Homo sapiens, UniProt P51452); assay: SAR VHR1 Fluorescent Assay for In Vitro dose response studies. [Related pubchem assays (depositor defined):AID1654, AID1661, AID1878, AID1992, AID2004, AID2070, AID2085]; assay type: functional
Dual specificity protein phosphatase 3, sequence (P51452 whole entry): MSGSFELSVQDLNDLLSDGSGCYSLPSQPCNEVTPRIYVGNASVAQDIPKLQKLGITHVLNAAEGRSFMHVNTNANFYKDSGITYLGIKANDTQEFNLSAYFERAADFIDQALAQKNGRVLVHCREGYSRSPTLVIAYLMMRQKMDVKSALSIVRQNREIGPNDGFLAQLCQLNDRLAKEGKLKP

[17] = target: T6, Tyrosine-protein phosphatase non-receptor type 7; assay: redox-active compounds inhibiting HePTP phosphatase – biochemical, fluorescence, mechanism study (AID 2068); assay type: functional
Coagulation factor XII = Coagulation factor XII (Homo sapiens, UniProt P00748); assay: activated coagulation factor XII inhibitor potency, concentration-effect curve, cell-free (AID 716); assay type: functional
Coagulation factor XII, sequence (P00748 20-372 limits assumed): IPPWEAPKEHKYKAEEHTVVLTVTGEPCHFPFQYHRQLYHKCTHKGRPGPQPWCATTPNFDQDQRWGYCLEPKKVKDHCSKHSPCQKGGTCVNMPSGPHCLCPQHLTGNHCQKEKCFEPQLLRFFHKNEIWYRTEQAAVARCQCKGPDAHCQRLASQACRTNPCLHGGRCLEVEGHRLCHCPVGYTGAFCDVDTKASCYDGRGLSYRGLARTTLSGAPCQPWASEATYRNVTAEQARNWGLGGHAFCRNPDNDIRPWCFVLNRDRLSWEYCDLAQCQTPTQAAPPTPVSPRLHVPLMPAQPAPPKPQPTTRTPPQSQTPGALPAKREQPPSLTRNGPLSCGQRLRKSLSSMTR
Coagulation factor XII, sequence (P00748 373-615 limits assumed): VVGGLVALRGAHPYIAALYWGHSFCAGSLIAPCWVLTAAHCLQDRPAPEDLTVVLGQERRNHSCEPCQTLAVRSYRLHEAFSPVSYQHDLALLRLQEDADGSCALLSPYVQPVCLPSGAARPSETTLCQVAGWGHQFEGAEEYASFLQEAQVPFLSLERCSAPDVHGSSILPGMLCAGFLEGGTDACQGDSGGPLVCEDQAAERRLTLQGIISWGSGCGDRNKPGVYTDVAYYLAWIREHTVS

cells [18] = assay type: functional, cell-based
[19] = target: T8, Trace amine-associated receptor 1 (Homo sapiens, UniProt Q96RJ0); assay: Fluorescence-based cell-based high throughput dose response assay to identify agonists of the human trace amine associated receptor 1 (TAAR1).; assay type: functional
T8 sequence (Q96RJ0 whole entry): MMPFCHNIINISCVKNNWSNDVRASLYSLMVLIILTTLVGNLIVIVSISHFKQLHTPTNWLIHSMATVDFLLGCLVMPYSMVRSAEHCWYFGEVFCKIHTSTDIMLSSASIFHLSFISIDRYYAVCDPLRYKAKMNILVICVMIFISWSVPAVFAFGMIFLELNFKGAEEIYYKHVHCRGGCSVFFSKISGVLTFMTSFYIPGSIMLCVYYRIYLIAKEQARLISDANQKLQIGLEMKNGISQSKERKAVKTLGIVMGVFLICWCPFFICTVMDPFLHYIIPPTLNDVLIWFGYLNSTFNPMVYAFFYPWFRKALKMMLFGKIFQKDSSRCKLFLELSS

[20] = target: T8, Trace amine-associated receptor 1; assay: Counterscreen for agonists of the human trace amine associated receptor 1 (hTAAR1): Fluorescence-based cell-based high throughput dose response assay to identify hTAAR1 agonist that also desensitize TAAR1 receptor response.; assay type: functional
cells [21] = assay type: functional, cell-based; remark: listed apart in the source

COc1cc2c3nnc(-c4ccccc4)c-3cn(Cc3ccccc3F)c2cc1OC
EC50 [1]: > 300 µM (not active)
EC50 [2]: > 300 µM (inconclusive)
EC50 [3]: 0.807 µM (active)
EC50 [4]: 5.8 µM (active)
EC50 [5]: > 99 µM (inactive)
EC50 [6]: 34.6 µM (inactive)

CCc1ccc(C(=O)Nc2cc(Cl)ccc2C(=O)O)cc1
IC50 (Hexokinase): 3.04 µM (active)

COc1cc(CN2CCC(n3nccc3NC(=O)CCCc3ccccc3)CC2)ccc1F
EC50 [7]: 58.2 µM (active)
EC50 [8]: 68.7 µM (active)
EC50 [9]: 79.7 µM (active)
EC50 [10]: 66.1 µM (active)

O=C1c2ccccc2CC1Sc1nnc(-c2ccco2)c(-c2ccco2)n1 (stereo not drawn)
IC50 [11]: 8.11 µM (active)
IC50 [12]: > 100 µM (not active)
IC50 [13]: > 100 µM (not active)
IC50 [14]: > 100 µM (not active)
IC50 [15]: 42.1 µM (active)
IC50 [16]: 27.9 µM (active)
IC50 [17]: 1.12 µM (active)

O=C(O)C1CCCCC1C(=O)NCCc1ccccc1 (stereo not drawn)
IC50 (Coagulation factor XII): > 50 µM (inactive)
IC50 (cells [18]): > 29.9 µM (inactive)
EC50 [19]: 1.42 µM (active)
IC50 [20]: 8.04 µM (active)
EC50 (cells [21]): > 29.9 µM (inactive)
